Patent US8614246B2, “Indole derivatives for treating neurodegenerative diseases” (Centre National de la Recherche Scientifique (CNRS), priority 2009, dated 2013)

Columns and labels:
[1] = Study of the passage through the blood-brain barrier (HPLC-MS/MS of brain extracts); assay type: in vivo, mice; conditions: for average concentration of compound 2c in brain extracts: 5-day sub-chronic, ± SEM, n=8
Experimental: The purpose of this study is to use HPLC coupled with a mass spectrometer to verify the presence of molecule 2c according to the invention […] hydrochloride of molecule 2c (2c/HCl) by oral or intra-peritoneal (IP)pathway.
Animals: Male RjOrl: SWISS mice approximately 5 weeks old and weighing between 20 and 24 g on arrival (from the R Janvier Breeding Centre, France) are kept in the animal house at constant temperature (22±1° C.) and under controlled hygrometry (55±20%) with a 12 hours light/darkness cycle (8 h00-20 h00). The mice were allowed free access to food and drink during the acclimatisation and study period. All experiments took place in accordance with the conditions defined in decree No. 2001-464, May 29, 2001 dealing with experiments on animals.
Treatments: Two 5-day sub-chronic treatments were done (oral or intra-peritoneal pathway): • Treatment by Intra-Peritoneal Pathway (IP):
The solution of hydrochloride of 2c/HCl to be injected is prepared in the carrier (10% Tween20+20% DMSO+70% NaCl at 09% in water) at a concentration of 2.0 g/L. Three groups were formed: • (1) mice that received the carrier through the IP pathway, at 10 mL/kg (group N, n=4), • (2) mice treated with 2c/HCl by IP pathway, at 20 mg/kg and at 10 mL/kg (group R, n=6), and • (3) Control mice that received no treatment (n=2).
The treated mice R4, R5 and R6 and the carrier mice N1, N2, N3 and N4 received the following treatments:
The solution of hydrochloride of 2c to be administered is prepared in the carrier (0.5% Tween80+99.5% carboxy-methyl cellulose at 1%, in 0.9% NaCl in water) at a concentration of 15.0 g/L.
(2) mice treated with 2c/HCl by oral pathway at 150 mg/kg and at 10 mL/kg (Group B, n=6), and
All mice were treated twice per day for 4 days. On the 5th day, they received a final treatment and were euthanized between 3 h00 and 7 h30 after this last treatment, according to the following scheme:
Euthanasia: The mice are anaesthetised by the injection of 0.1 mL of a solution of sodium pentobarbital at 6% and an perfusion is then done on the mice so as to remove all traces of blood from the brain, with an 0.9% NaCl solution that contains heparin (200 μL of heparin choay at 5000 UI/mL in 1 liter of 0.9% NaCl). An perfusion with a minimum of 50 mL of this solution is done on each animal. The mouse brain is removed. The cerebellum, the brain stem and olfactory bulbs are eliminated.
The 3 parts of the brain are frozen in isopentane at −30° C. for one minute, and then kept separately at −80° C. […]
However, only parts 1 of the mice brains were extracted and analysed so as to keep samples for future analyses. […]
Instrumentation and conditions for analysis of compound 2c: Detection and quantification based on the area of the peaks are done using HPLC-MS/MS, in MRM mode. […]

[2] = tested on: dopaminergic neurons (TH+ neurons) in primary cultures of ventral mesencephalon; assay: Neuritogenesis: total neuritic length per dopaminergic neuron in primary cultures of ventral mesencephalon; assay type: cell-based; conditions: Product 10 nM, 8 days culture, rat embryo ventral mesencephalon; untreated control = 100
Experimental: (§1) Dissection. Dissection consists of extracting embryos from the uterus of a rat after fifteen days of gestation. The brain of each embryo is then dissected under magnifying binoculars in order to extract the ventral mesencephalus.
(§2) Seeding. Mesencephalons are grouped in a flask containing 2 mL of L15 medium and then mechanically dissociated (30 repeat operations), 5 mL of L15 medium are added. The suspension is allowed to stand for 8 minutes. The 5 mL float is then recovered in a new flask and the cells are dissociated again (30 repeat operations). 5 mL of L15 is added again and the suspension is left to stand for 8 minutes. The 5 mL float is added to the previous float. The cells thus extracted are then centrifuged for 5 minutes at 1000 rpm^−1. The cell sediment is dissolved in a Neurobasal medium supplemented with 1% of B27, 1% of glutamine and 1% of a mixture of penicillin and streptomycin. The cells are then seeded at an appropriate dilution (0.6 embryos per well in 24-well plates and 0.4 per well in 48-well plates). The cultures are incubated at 37° C. in a wet atmosphere enriched with 5% CO2 in 24-well or 48-well plates.
(§3) Treatment. After 24 hours, two-thirds of the medium in each well is replaced by a new medium enriched with the product to be tested at the appropriate dilution. The medium is replaced in the same way after 4 days of culture.
(§4) Immunohistochemistry. After 8 days culture, the cells are fixed by a solution of 4% formaldehyde and then washed three times with PBS. The cells are then submitted to anti-tyrosine hydroxylase (TH) immunohistochemistry, developed by a secondary antibody coupled to a fluorophore emitting in the red (Cy3).
(§5) Analyses. Neuroprotection is evaluated by counting positive TH neurons with 10 fields per well directly under an inverted fluorescence microscope, reported as a percentage of the untreated control. Experiments are done on three wells per condition. Three independent experiments are done under these conditions. The total neuritic length per cell is calculated using Explora Nova's Neurite Outgrowth software on 60 to 100 neurons photographed independently per condition.
(§6) Primary cultures of ventral mesencephalon of rat embryos after 15.5 days of gestation under conditions causing spontaneous death of dopaminergic neurons, are maintained in the presence or absence of the compounds to be tested for 8 days. After fixing, the cultures are submitted to immunocytochemistry directed against tyrosine hydroxylase, a specific marker of dopaminergic neurons.
Neuritogenesis is quantified by measuring the total neuritic length per dopaminergic neuron (neuritic length/TH^+ neuron) using an image analyser on a minimum of sixty photographed neurons per condition (10-30% of all dopaminergic neurons).
(§7) All experiments were done by comparison with a positive control, dibutyryl-AMP cyclic (db-AMPc) (Mourlevat S. et al. Mol. Pharmacol. 2003, 64 (3), 578-586).

[3] = tested on: dopaminergic neurons (TH+ neurons) in primary cultures of ventral mesencephalon; assay: Neuroprotection: counting of remaining TH+ neurons in primary cultures of ventral mesencephalon (spontaneous death of dopaminergic neurons); assay type: cell-based; conditions: Product 10 nM, 8 days culture, rat embryo ventral mesencephalon; untreated control = 100
Experimental: as §1, §2, §3, §4, §5, §6
The neuroprotective potential of each compound is then estimated by counting the number of remaining neurons (TH^+ neurons) under a fluorescence microscope. The results for the different treatments are expressed as a percentage of the number of neurons remaining relative to untreated cultures (Control).
as §7

## CCCCCCCCCCCCCCCCNCCc1c[nH]c2ccccc12 [Compound 2c, N-(2-(1H-indol-3-yl)ethyl)hexadecan-1-amine]
[1]; mice, IP, 2c/HCl 20 mg/kg
  average concentration of compound 2c in brain extracts: 14.73 ng/mL
[1]; mice, after IP and after per os administration of 2c/HCl
  crossing of the BBB in vivo: capable of crossing the BBB in vivo
[1]; mice, per os, 2c/HCl 150 mg/kg twice per day (300 mg/kg/d)
  average concentration of compound 2c in brain extracts: 21.25 ng/mL
[1]; per os 300 mg/kg/d vs IP 20 mg/kg/d
  brain concentration after per os treatment relative to IP treatment: about 1.5 times
[2]
  Neuritic length/TH+ neuron, % relative to control ± SEM: 197.0 ± 14.0 %
[3]
  TH+ neurons, % relative to control ± SEM: 131.9 ± 4.7 %
